Values quoted from earlier work as cited in patent publication US10863763B2, “Prebiotic compositions and uses thereof” (priority 2013, dated 2020).
Where two headings read alike, the source gives them in different places.

Columns and labels:
[1] = heating at high temperatures for 60 min
[2] = not given; remark: listed apart in the source
[3] = 4 h 15 min after administration; 58 normal to slightly overweight women
[4] = enriched cereal bars, 2 day test period
[5] = 50% of patty fat replaced, v full fat patty
[6] = not given; remark: listed apart in the source
[7] = not given; remark: listed apart in the source
[8] = in vivo
[9] = test system: lactobacilli and bifidobacteria in the faeces; settings: 4.5 g/d for 21 d; healthy and constipated adults
[10] = 16 g/d × 2 wk v maltodextrin placebo
[11] = test system: anorexic gut peptides (GLP-1 & PYY); settings: after 2 weeks of supplementation, relative to maltodextrin placebo
[12] = 8 g/d for 12 months; adolescents, n=97; placebo 1.2
[13] = 21 g/d, 3 months; BMI >25 kg/m2, n=48; relative to maltodextrin control
[14] = in vivo; remark: listed apart in the source
[15] = not given; remark: listed apart in the source
[16] = meta-analysis, 10 trials, n=489; 95% CI 1.8, 0.4
[17] = low pH alone or Maillard reaction conditions
[18] = 11 RCT, overweight and obese adults

For short chain FOS [scFOS], the “measures of satiety at breakfast or lunch and food intake during an ad libitum lunch” value (two separate doses of 0, 5 and 8 g) is listed as “failed to alter” and the “energy intake over the remainder of the day” value (women consuming the 16 g dose) is listed as “significantly lower”.
For inulin, the “degradation to di-D-fructose dianhydrides” value [1] is listed as “substantial degradation”, the prebiotic activity ([2]; heating at low pH) is listed as “reduced” and the prebiotic activity [2, 17] is listed as “stable”. The “decrease in energy intake at an ad libitum lunch” value [3] was 89.84 kcal, the “energy intake or any of the 6 subjective ratings of hunger between treatments” value [4] was “no difference” and the measures of satiety [5] was “no effect”. For the same compound, the “total fat intake and total energy intake on the test day” value ([5]; 33 males) was “lower”, the “treatment-related toxicity, genotoxicity or carcinogenicity” value ([6]; animal studies and clinical trial reports) was “no evidence” and the “detrimental effects on mineral absorption, lipid metabolism or glycaemic control” value ([6]; in vivo) was “failed to find evidence”.
For β-glucan [reference compound], the “energy intake or any of the 6 subjective ratings of hunger between treatments” value [4] is listed as “no difference”.
In the case of glucomannan, the weight loss ([7]; 9 RCT, n=379, trials averaging 5.2 weeks, 95% CI −1.53, −0.05, 1.24 to 15.1 g/d) is given as 0.79 kg, the “weight change in the 3 studies supplying glucomannan in biscuits or granola bars” value ([7]; biscuits or granola bars) is given as “failed to report any significant weight change” and the “weight loss in obese subjects (mean)” value ([7]; obese subjects) is given as −1.30 (−1.69, −0.91) kg. For the same compound, the “safety in toxicological and genotoxicity studies” value [8] was “safe”, the “SOFA fatty acid concentrations in the faeces” value [9] was “increased” and the “proportion of lactobacilli and bifidobacteria in the faeces” value [9] was “increased”.
For fructooligosaccharides [FOS], the prebiotic activity ([2]; heating at low pH) is given as “reduced”, the prebiotic activity [2, 17] is given as “stable” and the fullness at dinner [10] is given as “increased”. The “prospective food intake at dinner” value [10] was “decreased”, the “reduction in total energy intake over a 24 hour test period” value [10] was 5% and the “satiety at breakfast and dinner” value [10] was “significantly increased”. For the same compound, the “release of anorexic gut peptides (GLP-1 & PYY) in response to a test meal” value [11] was “minor transient increases”, the “increase in BMI over 12 months” value [12] was 0.7 kg/m2 and the weight change [13] was −1.03 (SD 0.43) kg. The “detrimental effects on mineral absorption, lipid metabolism or glycaemic control” value ([6]; in vivo) was “failed to find evidence”, the “single dose at which GI adverse effects (bloating, flatulence and diarrhoea) become evident” value ([6]; in vivo) was over 20 g/day and the “treatment-related toxicity, genotoxicity or carcinogenicity” value ([6]; in vivo) was “no evidence”.
For `[Cr]` [chromium], the “adverse effects reported by other authors” value [14] is listed as “constipation, decreased appetite and urticaria”, the “mean difference in weight in favour of chromium over placebo” value ([15]; 11 RCT, n=866, 95% CI −0.96, −0.03, 137 to 1000 μg/d) is listed as -0.5 kg and the “BMI or waist to hip circumference” value [15, 18] is listed as “no effect”. The percentage body fat [15, 18] was “modest reduction” and the “adverse effects in participants” value ([15]; disappeared on withdrawal, reappeared on reintroduction) was “watery stools, vertigo, weakness, nausea, vomiting, dizziness and headaches”.
For chromium picolinate, the “weighted mean difference in weight in favour of chromium picolinate over placebo” value [16] is listed as 1.1 kg.
